From US20240384268A1, “Oligonucleotides” (Hudson Institute of Medical Research, priority 2021, published 2024)

Molecular target: T1, human TLR9 (Homo sapiens, UniProt Q9NR96)
T1 construct: HA; host or cells: 293XL-hTLR9-HA (HEK293)
T1 sequence (Q9NR96 26-1032): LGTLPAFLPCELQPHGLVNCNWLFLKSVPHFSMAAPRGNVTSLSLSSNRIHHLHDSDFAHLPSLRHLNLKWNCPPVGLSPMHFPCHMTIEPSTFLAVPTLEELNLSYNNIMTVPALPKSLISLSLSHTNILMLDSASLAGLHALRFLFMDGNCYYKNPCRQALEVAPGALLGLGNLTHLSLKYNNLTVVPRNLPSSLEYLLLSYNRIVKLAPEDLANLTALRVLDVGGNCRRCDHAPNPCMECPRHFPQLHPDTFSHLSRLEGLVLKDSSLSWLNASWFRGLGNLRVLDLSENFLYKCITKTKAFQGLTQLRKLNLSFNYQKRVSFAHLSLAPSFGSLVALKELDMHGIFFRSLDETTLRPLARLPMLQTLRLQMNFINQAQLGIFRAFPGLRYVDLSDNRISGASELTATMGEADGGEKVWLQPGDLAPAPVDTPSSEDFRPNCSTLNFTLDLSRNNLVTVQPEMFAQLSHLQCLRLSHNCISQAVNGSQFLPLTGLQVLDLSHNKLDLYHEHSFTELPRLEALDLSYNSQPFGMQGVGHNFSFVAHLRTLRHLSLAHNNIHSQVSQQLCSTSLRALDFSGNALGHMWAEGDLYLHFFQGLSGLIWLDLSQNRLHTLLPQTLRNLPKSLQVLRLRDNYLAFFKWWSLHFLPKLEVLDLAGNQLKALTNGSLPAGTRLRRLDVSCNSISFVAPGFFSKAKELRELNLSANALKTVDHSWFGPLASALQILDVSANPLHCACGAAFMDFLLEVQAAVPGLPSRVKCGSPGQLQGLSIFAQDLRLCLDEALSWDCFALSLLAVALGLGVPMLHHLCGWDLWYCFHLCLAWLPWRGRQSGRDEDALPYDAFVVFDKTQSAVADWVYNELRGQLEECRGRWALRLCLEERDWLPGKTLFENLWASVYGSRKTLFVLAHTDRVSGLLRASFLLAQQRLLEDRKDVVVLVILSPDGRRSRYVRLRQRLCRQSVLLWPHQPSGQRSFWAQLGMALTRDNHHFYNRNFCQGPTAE
Test: HEK-TLR9 NF-κB-luciferase reporter, ODN2006 stimulation
Assay type: cell-based
Conditions: for TLR9 100 nM (averaged NF-κB-Luciferase level relative to ODN2006 condition): ASO 100 nM; for TLR9 100 nM (averaged NF-κB-Luciferase level relative to ODN2006 condition) / TLR9 500 nM (averaged NF-κB-Luciferase level relative to ODN2006 condition): relative to ODN2006 only, given as fraction; for TLR9 500 nM (averaged NF-κB-Luciferase level relative to ODN2006 condition): ASO 500 nM

AAAGGACTGAGGAAAG (antisense; LNA-modified, pattern not given here) [CAMSAP1-6273 LNA KL]
TLR9 100 nM (averaged NF-κB-Luciferase level relative to ODN2006 condition): 0.780 | TLR9 500 nM (averaged NF-κB-Luciferase level relative to ODN2006 condition): 0.185

AACACTTCGTGGGGTC (antisense; LNA-modified, pattern not given here) [HPRT LNA-666 V1]
TLR9 100 nM (averaged NF-κB-Luciferase level relative to ODN2006 condition): 1.104 | TLR9 500 nM (averaged NF-κB-Luciferase level relative to ODN2006 condition): 0.475

AACCCCTTTCACCATC (antisense; LNA-modified, pattern not given here) [MB21D1-689 LNA KL]
TLR9 100 nM (averaged NF-κB-Luciferase level relative to ODN2006 condition): 0.586 | TLR9 500 nM (averaged NF-κB-Luciferase level relative to ODN2006 condition): 0.076

AATCCAACAAAGTCTG (antisense; LNA-modified, pattern not given here) [HPRT LNA-692 KL]
TLR9 100 nM (averaged NF-κB-Luciferase level relative to ODN2006 condition): 1.050 | TLR9 500 nM (averaged NF-κB-Luciferase level relative to ODN2006 condition): 0.529

ACACTTCGTGGGGTCCTTTT (antisense; 2'-MOE modified, pattern not given here) [HPRT-663 MOE]
inhibition of TLR9, 2′MOE ASOs (in words) (HEK-TLR9, 100 nM MOE ASO 45 min, 200 nM ODN2006 (FIG. 30)): stronger inhibitor than 664/665 and 666 ASOs | TLR9 100 nM (MOE-modified ASO at 100 nM, averaged NF-κB-Luciferase relative to ODN2006 condition): 0.114 | TLR9 500 nM (MOE-modified ASO at 500 nM, averaged NF-κB-Luciferase relative to ODN2006 condition): 0.226

ACCACGTCTGCTCTAA (antisense; LNA-modified, pattern not given here) [CAMSAP1-1635 LNA KL]
TLR9 100 nM (averaged NF-κB-Luciferase level relative to ODN2006 condition): 0.842 | TLR9 500 nM (averaged NF-κB-Luciferase level relative to ODN2006 condition): 0.162

ACGTTCAGTCCTGTCC (antisense; LNA-modified, pattern not given here) [HPRT LNA-294 V1]
TLR9 100 nM (averaged NF-κB-Luciferase level relative to ODN2006 condition): 0.427 | TLR9 500 nM (averaged NF-κB-Luciferase level relative to ODN2006 condition): 0.198

ACTTCGTGGGGTCCTT (antisense; LNA-modified, pattern not given here) [HPRT LNA-663 V1]
TLR9 100 nM (averaged NF-κB-Luciferase level relative to ODN2006 condition): 0.377 | TLR9 500 nM (averaged NF-κB-Luciferase level relative to ODN2006 condition): 0.377

AGATTTCAGAGCAGCT (antisense; LNA-modified, pattern not given here) [EGFR-4885 LNA KL]
TLR9 100 nM (averaged NF-κB-Luciferase level relative to ODN2006 condition): 0.848 | TLR9 500 nM (averaged NF-κB-Luciferase level relative to ODN2006 condition): 0.438

AGCTTCGAGGCCCCAG (antisense; LNA-modified, pattern not given here) [MB21D1-616 LNA V1]
TLR9 100 nM (averaged NF-κB-Luciferase level relative to ODN2006 condition): 0.114 | TLR9 500 nM (averaged NF-κB-Luciferase level relative to ODN2006 condition): 0.085

AGGACTCCAGATGTTT (antisense; LNA-modified, pattern not given here) [HPRT LNA pos cont]
TLR9 100 nM (averaged NF-κB-Luciferase level relative to ODN2006 condition): 0.816 | TLR9 500 nM (averaged NF-κB-Luciferase level relative to ODN2006 condition): 0.511

AGGCCCTTCGCACTTC (antisense; LNA-modified, pattern not given here) [EGFR-1225 LNA V1]
TLR9 100 nM (averaged NF-κB-Luciferase level relative to ODN2006 condition): 0.576 | TLR9 500 nM (averaged NF-κB-Luciferase level relative to ODN2006 condition): 0.211

AGGTCTTGGCTTCGTG (antisense; LNA-modified, pattern not given here) [MB21D1-524 LNA V1]
TLR9 100 nM (averaged NF-κB-Luciferase level relative to ODN2006 condition): 0.975 | TLR9 500 nM (averaged NF-κB-Luciferase level relative to ODN2006 condition): 0.383

AGTGTTGAGATACTCG (antisense; LNA-modified, pattern not given here) [EGFR-3652 LNA KL]
TLR9 100 nM (averaged NF-κB-Luciferase level relative to ODN2006 condition): 0.982 | TLR9 500 nM (averaged NF-κB-Luciferase level relative to ODN2006 condition): 0.540

ATCTGGCAGCCCATCA (antisense; LNA-modified, pattern not given here) [CTNN2B-2516 LNA V1]
TLR9 100 nM (averaged NF-κB-Luciferase level relative to ODN2006 condition): 1.248 | TLR9 500 nM (averaged NF-κB-Luciferase level relative to ODN2006 condition): 0.603

ATGGCCTCCCATCTCC (antisense; LNA-modified, pattern not given here) [HPRT LNA-330 V1]
TLR9 100 nM (averaged NF-κB-Luciferase level relative to ODN2006 condition): 0.511 | TLR9 500 nM (averaged NF-κB-Luciferase level relative to ODN2006 condition): 0.244

ATGTGATGGCCTCCCA (antisense; LNA-modified, pattern not given here) [HPRT LNA-335 V1]
TLR9 100 nM (averaged NF-κB-Luciferase level relative to ODN2006 condition): 0.776 | TLR9 500 nM (averaged NF-κB-Luciferase level relative to ODN2006 condition): 0.451

CACTTCGTGGGGTCCT (antisense; LNA-modified, pattern not given here) [HPRT LNA-664 V1]
TLR9 100 nM (averaged NF-κB-Luciferase level relative to ODN2006 condition): 0.215 | TLR9 500 nM (averaged NF-κB-Luciferase level relative to ODN2006 condition): 0.074

CATCCACCACGTCGTC (antisense; LNA-modified, pattern not given here) [EGFR-3266 LNA V1]
TLR9 100 nM (averaged NF-κB-Luciferase level relative to ODN2006 condition): 0.722 | TLR9 500 nM (averaged NF-κB-Luciferase level relative to ODN2006 condition): 0.620

CCAACACTTCGTGGGG (antisense; LNA-modified, pattern not given here) [HPRT LNA-668 V1]
TLR9 100 nM (averaged NF-κB-Luciferase level relative to ODN2006 condition): 1.065 | TLR9 500 nM (averaged NF-κB-Luciferase level relative to ODN2006 condition): 0.610

CCACATCCTGTGGCTC (antisense; LNA-modified, pattern not given here) [CAMSAP1-2906 LNA V1]
TLR9 100 nM (averaged NF-κB-Luciferase level relative to ODN2006 condition): 0.338 | TLR9 500 nM (averaged NF-κB-Luciferase level relative to ODN2006 condition): 0.337

CCACTTGGCAGACCAT (antisense; LNA-modified, pattern not given here) [CTNN2B-1575 LNA V1]
TLR9 100 nM (averaged NF-κB-Luciferase level relative to ODN2006 condition): 1.112 | TLR9 500 nM (averaged NF-κB-Luciferase level relative to ODN2006 condition): 0.111

CCAGCAGGTCAGCAAA (antisense; LNA-modified, pattern not given here) [HPRT LNA-388 KL]
TLR9 100 nM (averaged NF-κB-Luciferase level relative to ODN2006 condition): 0.736 | TLR9 500 nM (averaged NF-κB-Luciferase level relative to ODN2006 condition): 0.149

CCCACTTGGCAGACCA (antisense; LNA-modified, pattern not given here) [CTNN2B-1576 LNA V1]
TLR9 100 nM (averaged NF-κB-Luciferase level relative to ODN2006 condition): 0.381 | TLR9 500 nM (averaged NF-κB-Luciferase level relative to ODN2006 condition): 0.656

CCTCCCATCTCCTTCA (antisense; LNA-modified, pattern not given here) [HPRT LNA-326 V1]
TLR9 100 nM (averaged NF-κB-Luciferase level relative to ODN2006 condition): 1.010 | TLR9 500 nM (averaged NF-κB-Luciferase level relative to ODN2006 condition): 0.727

CCTTGCACGTGGCTTC (antisense; LNA-modified, pattern not given here) [EGFR-1013 LNA V1]
TLR9 100 nM (averaged NF-κB-Luciferase level relative to ODN2006 condition): 0.814 | TLR9 500 nM (averaged NF-κB-Luciferase level relative to ODN2006 condition): 0.519

CGCTTTTCTGTCTGGT (antisense; LNA-modified, pattern not given here) [CTNN2B-311 LNA KL]
TLR9 100 nM (averaged NF-κB-Luciferase level relative to ODN2006 condition): 0.827 | TLR9 500 nM (averaged NF-κB-Luciferase level relative to ODN2006 condition): 0.178

CGGCCTCGGAAGCTCT (antisense; LNA-modified, pattern not given here) [MB21D1-168 LNA V1]
TLR9 100 nM (averaged NF-κB-Luciferase level relative to ODN2006 condition): 0.218 | TLR9 500 nM (averaged NF-κB-Luciferase level relative to ODN2006 condition): 0.116

CGTATTATAGCCGATT (antisense; LNA-modified, pattern not given here) [NC1 LNA PS 3-10-3]
TLR9 100 nM (averaged NF-κB-Luciferase level relative to ODN2006 condition): 0.933 | TLR9 500 nM (averaged NF-κB-Luciferase level relative to ODN2006 condition): 0.558

CTGCAGCTTCCTTGTC (antisense; LNA-modified, pattern not given here) [CTNN2B-2136 LNA V1]
TLR9 100 nM (averaged NF-κB-Luciferase level relative to ODN2006 condition): 0.358 | TLR9 500 nM (averaged NF-κB-Luciferase level relative to ODN2006 condition): 0.263

CTTCGTGGGGTCCTTT (antisense; LNA-modified, pattern not given here) [HPRT LNA-662 V1]
TLR9 100 nM (averaged NF-κB-Luciferase level relative to ODN2006 condition): 0.557 | TLR9 500 nM (averaged NF-κB-Luciferase level relative to ODN2006 condition): 0.240

CTTGAAGCATCGTATC (antisense; LNA-modified, pattern not given here) [CTNN2B-3648 LNA KL]
TLR9 100 nM (averaged NF-κB-Luciferase level relative to ODN2006 condition): 0.899 | TLR9 500 nM (averaged NF-κB-Luciferase level relative to ODN2006 condition): 0.483

CTTGGCTTCGTGGAGC (antisense; LNA-modified, pattern not given here) [MB21D1-520 LNA V1]
TLR9 100 nM (averaged NF-κB-Luciferase level relative to ODN2006 condition): 0.596 | TLR9 500 nM (averaged NF-κB-Luciferase level relative to ODN2006 condition): 0.371

GAAAGGTTATGCAAGG (antisense; LNA-modified, pattern not given here) [CTNN2B-916 LNA KL]
TLR9 100 nM (averaged NF-κB-Luciferase level relative to ODN2006 condition): 0.748 | TLR9 500 nM (averaged NF-κB-Luciferase level relative to ODN2006 condition): 0.606
